Data on 1 substance can be found in patent US6372208B1, “Method of reducing an immune response to a recombinant virus” (The Trustees of the University of Pennsylvania, priority 1996, dated 2002).

For the assay, the system named is L929 cells. Briefly: IFN-γ in the same lymphocyte culture supernatant measured on L929 cells. The assay is classed as cell-based, C57BL/6 mice. Particulars: MLN lymphocytes day 28, restimulated with virus. The procedure:
Lymphocytes from MLN of the control group and IL-12 treated group of C57BL/6 mice were harvested 28 days after administration of H5.010CBALP and restimulated in vitro with UV-inactivated H5.010CMVlacZ at 10 particles/cell for 24 hours. Cell-free supernatants were assayed for the presence of IL-2 or IL-4 on HT-2 cells (an IL-2 or IL-4-dependent cell line) [Yang I, cited above]. Presence of IFN-γ in the same lymphocyte culture supernatant was measured on L929 cells as described [Yang I, cited above]. Stimulation index (S.I.) was calculated by dividing ^3H-thymidine cpm incorporated into HT-2 cells cultured in supernatants of lymphocytes restimulated with virus by ^3H-thymidine cpm incorporated into HT-2 cells cultured in supernatants of lymphocytes incubated in antigen-free medium.

Regarding interleukin-12 [IL-12], the “[formula] (column head not readable; IFN-γ in supernatant)” value stood at 160.
